Reference: patent US20160251402A1, “MICROPEPTIDES AND USE OF SAME FOR MODULATING GENE EXPRESSION” (UNIVERSITE PAUL SABATIER TOULOUSE III, priority 2013, published 2016)

Tested on: HsmiR155
Assay: Relative expression of Pre-miR155 in transfected HeLa cells
Type: cell-based, Homo sapiens
Settings: HeLa cells transfected to overexpress HsmiPEP155
Text: The DNA fragments of interest (HsmiPEP155 and the mutated miPEP) were synthesized or amplified by PCR using specific primers, and then cloned using the enzymes XhoI and NotI into a pUAS plasmid permitting their overexpression by means of the GAL4 transcription factor, the expression of which is controlled by a constitutive strong promoter.
The different constructs were produced either by PCR amplification on genomic DNA of HeLa cells, or by RT-PCR on total RNAs of L428 human cells. The amplified PCR fragments are digested with the HindIII/EcoRI restriction enzymes and then cloned into the vector pcDNA3.1. The DH5α strain of Escherichia coli is electroporated and then cultured on a solid medium (2YT+agar+ampicillin). The plasmid DNA from different clones is then prepared and sequenced for verification. The constructs are then prepared using the QIAfilter Plasmid Midi kit (QIAGEN) and stored at −20° C.
The HeLa cells (established tumour line, ATCC CCL-2.2) are cultured in a 6-well plate in complete medium [(DMEM (1x)+Glutamax+4.5 g/L glucose without pyruvate+1x penicillin/streptomycin+1 mM Na-pyruvate+10% calf serum] and placed in an incubator at 37° C. and 5% CO2.
The cells are transfected when they are at 50% confluence. […]
10-15 μg of total RNAs is then analysed by Northern blot on 15% acrylamide gel [solution of acrylamide/40% bis-acrylamide, ratio 19:1], 7M urea in TBE 1x. […]

MEMALMVAQTRKGKSVV (listed as Homo sapiens) [HsmiPEP155]
relative expression of Pre-miR155: increases the expression of HsmiR155
